For 12 compounds, IC50 and Kd results are on record in ChEMBL document CHEMBL4017545, “Small Molecule Antagonists of the Interaction between the Histone Deacetylase 6 Zinc-Finger Domain and Ubiquitin” (J Med Chem, 2017).

Experiment [1] has as its target T1, Protein deacetylase HDAC6 (Homo sapiens, UniProt Q9UBN7).
T1 sequence (Q9UBN7 whole entry): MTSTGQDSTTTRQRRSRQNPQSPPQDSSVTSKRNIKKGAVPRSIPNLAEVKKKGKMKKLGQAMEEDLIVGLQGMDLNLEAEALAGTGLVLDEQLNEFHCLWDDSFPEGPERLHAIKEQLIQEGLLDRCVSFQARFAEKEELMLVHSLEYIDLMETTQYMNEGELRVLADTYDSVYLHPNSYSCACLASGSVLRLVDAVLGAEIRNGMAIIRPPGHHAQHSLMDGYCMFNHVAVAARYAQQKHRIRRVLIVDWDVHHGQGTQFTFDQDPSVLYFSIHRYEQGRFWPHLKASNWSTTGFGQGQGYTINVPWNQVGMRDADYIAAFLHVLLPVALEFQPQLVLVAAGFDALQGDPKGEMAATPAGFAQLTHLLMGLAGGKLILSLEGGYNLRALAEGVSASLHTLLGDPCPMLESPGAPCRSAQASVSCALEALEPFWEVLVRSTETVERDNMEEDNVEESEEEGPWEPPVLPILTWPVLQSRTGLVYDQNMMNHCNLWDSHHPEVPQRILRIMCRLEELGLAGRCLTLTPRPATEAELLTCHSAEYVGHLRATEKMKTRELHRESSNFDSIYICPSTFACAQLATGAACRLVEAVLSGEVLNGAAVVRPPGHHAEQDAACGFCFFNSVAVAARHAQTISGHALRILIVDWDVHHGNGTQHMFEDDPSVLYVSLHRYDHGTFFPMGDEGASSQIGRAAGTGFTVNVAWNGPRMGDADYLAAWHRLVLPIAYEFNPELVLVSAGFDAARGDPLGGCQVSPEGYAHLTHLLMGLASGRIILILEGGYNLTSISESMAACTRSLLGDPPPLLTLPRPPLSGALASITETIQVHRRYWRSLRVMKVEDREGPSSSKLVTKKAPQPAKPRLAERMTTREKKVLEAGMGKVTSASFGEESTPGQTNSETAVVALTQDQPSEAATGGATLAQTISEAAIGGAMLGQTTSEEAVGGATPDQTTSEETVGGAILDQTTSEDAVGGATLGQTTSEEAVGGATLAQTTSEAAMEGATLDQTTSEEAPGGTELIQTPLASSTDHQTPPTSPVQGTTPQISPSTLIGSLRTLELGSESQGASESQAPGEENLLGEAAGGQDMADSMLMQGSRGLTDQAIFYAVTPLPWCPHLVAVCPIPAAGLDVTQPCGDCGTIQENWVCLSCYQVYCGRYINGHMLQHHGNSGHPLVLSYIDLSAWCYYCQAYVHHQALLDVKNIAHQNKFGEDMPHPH
In words: Displacement of FITC-labeled RLRGG peptide from N-terminal His6-tagged HDAC6 zinc-finger ubiquitin binding domain (1109 to 1215 residues)(unknown origin) expressed in Escherichia coli BL21(DE3) after 10 mins by fluorescence polarization assay.

The target in experiment [2] is T1, Protein deacetylase HDAC6. In words: Binding affinity to N-terminal Avi-tagged/C-terminal His6-tagged HDAC6 zinc-finger ubiquitin binding domain (1109 to 1215 residues)(unknown origin) expressed in Escherichia coli BL21(DE3) after 30 secs by SPR assay.
In experiment [3] the target is T1, Protein deacetylase HDAC6. In words: Binding affinity to N-terminal His6-tagged HDAC6 zinc-finger ubiquitin binding domain (1109 to 1215 residues)(unknown origin) expressed in Escherichia coli BL21(DE3) by isothermal titration calorimetry.

With `Cn1c(=O)c(CCC(=O)O)nc2ccccc21`, the IC50 in experiment [1] (read-out: IC50) worked out at 70 µM. The same measure, in the same setting: to `O=C(O)CCc1nc2ccccc2nc1OCCOc1ccccn1` belongs 110 µM. Take `Cc1n[nH]c(=O)nc1Nc1ccc(C(C)C)cc1`: the Kd result in experiment [2] and in experiment [3] was “Not Active” each time. Besides, the IC50 result in experiment [1] is recorded as “Not Active”. Turning to `O=C(O)CCc1nc2ccccc2nc1OCc1cccs1`, in experiment [1], the IC50 entry is recorded as “Not Active”. `CCC(=O)Nc1nc(C)cs1`: the Kd result in experiment [2] and in experiment [3] was “Not Active” throughout. In addition, in experiment [1], the IC50 result is recorded as “Not Active”. As to `O=C(O)CCc1nc2ccccc2nc1Sc1ccccc1`, the IC50 in experiment [1] (read-out: IC50) worked out at 60 µM. The same measure, in the same setting: then `Cn1ccnc1COc1nc2ccccc2nc1CCC(=O)O`, with 140 µM; and `Cc1cccc(OCCOc2nc3ccccc3nc2CCC(=O)O)c1`, with 180 µM. For the compound `O=C(O)CCc1nc2ccccc2nc1OCc1ccccc1`, the IC50 result in experiment [1] is on record as “Not Active”.

In the case of `O=C(O)CCc1nc2ccccc2nc1OCc1ccccn1`, the IC50 in experiment [1] (read-out: IC50) stood at 270 µM.

Take `O=C(O)CCc1nc2cc(Cl)ccc2s1`: the values for the Kd in experiment [2] (read-out: Kd) and in experiment [3] (read-out: Kd) were 60 µM and 40 µM, respectively. Besides, the IC50 in experiment [1] (read-out: IC50) is 55 µM.

On to `O=C(O)CCn1nc(-c2cccnc2)ccc1=O`, for which the Kd in experiment [2] (read-out: Kd) was 220 µM; in experiment [3] (read-out: Kd), 210 µM. Also, the concentration for half-maximal inhibition (IC50) in experiment [1] (read-out: IC50) was found to be 350 µM.
